The values that follow come from PMC4823272 (Frontiers in Microbiology, 2016).

Experiment [1] concerns IFV (H1N1, A/Puerto Rico/8/34). In words: rRT-PCR quantification of IFV captured on membranes. It is filed as binding, influenza virus A/Puerto Rico/8/34 (H1N1). To be noted: 1600 pfu incubated 1 h at 25°C; plastic plates; estimated from rRT-PCR standard curve (M gene, R^2 0.954). The protocol: The pep-PE/DOPC (50:50) lipid monolayer was attached horizontally to plastic plates as described above. […] After washing with PBS, plates were incubated with AVL viral lysis buffer (QIAamp Viral RNA Mini Kit, QIAGEN) for 10 min. Viral RNA was extracted according to the manufacturer's instructions.
One-step RT-PCR was performed using QuantiTect SYBR Green PCR Kit (QIAGEN) with forward and reverse primers for the sequences of the matrix protein (M) gene for 244 bp (forward M30F2/08: 5′-[…] -3′; reverse M264R3/08: 5′-[…] -3′; Eisfeld et al., [2014]). The reaction was performed using a PikoReal Real-Time PCR system (TCR0096, Thermo Scientific). PCR was set up in a 10-μL reaction volume containing 5 μL of 2 × QuantiTect SYBR Green RT-PCR master mix, 0.1 μL of QuantiTect RT Mix, 0.5 μL of RNA template, 1 μL of forward and reverse primers (10 μM each), and 3.4 μL of RNase free water. […] Fluorescence was measured at the end of each cycle. […] A melting curve analysis consisted of 60°C for 30 s, and followed by a temperature increase to 95°C for 10 s with the continuous reading of fluorescence. The amplified products were analyzed by agarose gel electrophoresis (2.5% agarose) and detected by staining with ethidium bromide (Supplementary Figure 3A). […]

A further experiment deals with HA. The settings on record: cited from earlier work.
The subject of the next experiment is IFV. The settings on record: ref Matsubara et al., [2010]; cited from earlier work. The text has this: The first step in the infection of cells by IFV is the binding of HA to sialic acid-containing glycoconjugates (Skehel and Wiley, [2000]). Human HA strains preferentially bind to the terminal sialylgalactose structure (Neu5Acα2−6Gal), whereas avian and equine strains bind to the corresponding Neu5Acα2−3Gal (Suzuki, [2005]).

For the compound `CCCCCCCC/C=C\CCCCCCCC(=O)OC[C@H](COP(=O)([O-])OCC[N+](C)(C)C)OC(=O)CCCCCCC/C=C\CCCCCCCC` [DOPC, Dioleoylphosphatidylcholine], in experiment [1], the “amount of virus captured on the membrane” value is 100 pfu.
In the case of Ala-Arg-Leu-Pro-Arg, in the experiment with HA (ref Matsubara et al., [2010]), the “binding to receptor-binding site of HA” value is “binds to the receptor-binding site of HA by mimicking sialic acid”. Further, in the experiment with IFV, the “inhibition of IFV infection in cells” value is “exerts the inhibitory effects on IFV infection in cells”.
As for Neu5Acα2–3Galβ1–4Glcβ1–1′Cer [GM3], the “HA binding to GM3” value with HA (ref Suzuki et al., [1986], Sato et al., [1996]) is “HA binds to GM3 through the sialyllactose structure”.
